Results on two molecules are retold here after ChEMBL document CHEMBL1240295, “Specificity and mechanism of action of some commonly used protein kinase inhibitors” (Biochem J, 2000).

Assay [1] addresses T1, MAP kinase-activated protein kinase 5 (Homo sapiens) (UniProt Q8IW41).
T1 sequence (whole entry): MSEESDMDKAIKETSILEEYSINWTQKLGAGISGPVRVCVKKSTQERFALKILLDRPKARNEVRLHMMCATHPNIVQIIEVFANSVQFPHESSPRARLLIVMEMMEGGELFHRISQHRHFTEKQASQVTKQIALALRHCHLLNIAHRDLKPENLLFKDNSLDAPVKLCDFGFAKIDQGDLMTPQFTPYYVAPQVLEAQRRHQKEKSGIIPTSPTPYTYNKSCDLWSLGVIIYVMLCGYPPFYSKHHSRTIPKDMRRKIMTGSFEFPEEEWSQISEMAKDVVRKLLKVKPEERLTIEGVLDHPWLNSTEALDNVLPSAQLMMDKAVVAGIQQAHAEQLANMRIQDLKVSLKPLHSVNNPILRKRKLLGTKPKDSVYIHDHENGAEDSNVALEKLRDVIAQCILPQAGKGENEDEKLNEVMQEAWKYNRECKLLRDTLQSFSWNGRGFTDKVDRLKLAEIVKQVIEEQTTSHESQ
The conditions noted are these: Sf9, at 10 µM.
Description: Inhibition of His-tagged human PRAK expressed in Sf9 cells at 10 uM

Assay [2] addresses Ribosomal protein S6 kinase alpha-5 (Homo sapiens, UniProt O75582). The conditions noted are these: Sf9, at 10 µM.
Description: Inhibition of His-tagged human MSK1 expressed in Sf9 cells at 10 uM
Assay [3] addresses Mitogen-activated protein kinase 11 (Homo sapiens) (UniProt Q15759). Conditions: at 10 µM.
Description: Inhibition of Gst-tagged human SAPK2b/p38--beta-2 expressed in Escherichia coli at 10 uM
Assay [4] deals with Mitogen-activated protein kinase 1 (Homo sapiens) (UniProt P28482). The conditions noted are these: at 10 µM.
Mitogen-activated protein kinase 1 (Homo sapiens), sequence (P28482 whole entry): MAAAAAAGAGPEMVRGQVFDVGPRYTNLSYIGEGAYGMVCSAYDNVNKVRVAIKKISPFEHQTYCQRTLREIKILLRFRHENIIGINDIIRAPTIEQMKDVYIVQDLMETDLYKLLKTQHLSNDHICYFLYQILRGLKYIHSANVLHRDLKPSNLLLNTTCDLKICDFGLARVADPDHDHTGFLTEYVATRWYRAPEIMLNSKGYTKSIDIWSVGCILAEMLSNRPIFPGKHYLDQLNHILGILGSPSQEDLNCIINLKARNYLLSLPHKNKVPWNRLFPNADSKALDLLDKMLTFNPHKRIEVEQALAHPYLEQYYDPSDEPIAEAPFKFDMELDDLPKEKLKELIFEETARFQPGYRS
Description: Inhibition of Gst-tagged human MAPK2/ERK2 expressed in Escherichia coli at 10 uM
Assay [5] concerns the target Mitogen-activated protein kinase 8 (Homo sapiens) (UniProt P45983). The conditions noted are these: at 10 µM.
Description: Inhibition of Gst-tagged human JNK1a1 expressed in Escherichia coli at 10 uM
Assay [6] concerns the target Protein kinase C alpha type (Homo sapiens, UniProt P17252). The conditions noted are these: at 10 µM.
Description: Inhibition of His-tagged human PKCalpha expressed in Escherichia coli at 10 uM
The target in assay [7] is Rho-associated protein kinase 2 (Rattus norvegicus) (UniProt Q62868). The conditions noted are these: Sf9, at 10 µM.
Rho-associated protein kinase 2 (Rattus norvegicus), sequence (Q62868 whole entry, looked up): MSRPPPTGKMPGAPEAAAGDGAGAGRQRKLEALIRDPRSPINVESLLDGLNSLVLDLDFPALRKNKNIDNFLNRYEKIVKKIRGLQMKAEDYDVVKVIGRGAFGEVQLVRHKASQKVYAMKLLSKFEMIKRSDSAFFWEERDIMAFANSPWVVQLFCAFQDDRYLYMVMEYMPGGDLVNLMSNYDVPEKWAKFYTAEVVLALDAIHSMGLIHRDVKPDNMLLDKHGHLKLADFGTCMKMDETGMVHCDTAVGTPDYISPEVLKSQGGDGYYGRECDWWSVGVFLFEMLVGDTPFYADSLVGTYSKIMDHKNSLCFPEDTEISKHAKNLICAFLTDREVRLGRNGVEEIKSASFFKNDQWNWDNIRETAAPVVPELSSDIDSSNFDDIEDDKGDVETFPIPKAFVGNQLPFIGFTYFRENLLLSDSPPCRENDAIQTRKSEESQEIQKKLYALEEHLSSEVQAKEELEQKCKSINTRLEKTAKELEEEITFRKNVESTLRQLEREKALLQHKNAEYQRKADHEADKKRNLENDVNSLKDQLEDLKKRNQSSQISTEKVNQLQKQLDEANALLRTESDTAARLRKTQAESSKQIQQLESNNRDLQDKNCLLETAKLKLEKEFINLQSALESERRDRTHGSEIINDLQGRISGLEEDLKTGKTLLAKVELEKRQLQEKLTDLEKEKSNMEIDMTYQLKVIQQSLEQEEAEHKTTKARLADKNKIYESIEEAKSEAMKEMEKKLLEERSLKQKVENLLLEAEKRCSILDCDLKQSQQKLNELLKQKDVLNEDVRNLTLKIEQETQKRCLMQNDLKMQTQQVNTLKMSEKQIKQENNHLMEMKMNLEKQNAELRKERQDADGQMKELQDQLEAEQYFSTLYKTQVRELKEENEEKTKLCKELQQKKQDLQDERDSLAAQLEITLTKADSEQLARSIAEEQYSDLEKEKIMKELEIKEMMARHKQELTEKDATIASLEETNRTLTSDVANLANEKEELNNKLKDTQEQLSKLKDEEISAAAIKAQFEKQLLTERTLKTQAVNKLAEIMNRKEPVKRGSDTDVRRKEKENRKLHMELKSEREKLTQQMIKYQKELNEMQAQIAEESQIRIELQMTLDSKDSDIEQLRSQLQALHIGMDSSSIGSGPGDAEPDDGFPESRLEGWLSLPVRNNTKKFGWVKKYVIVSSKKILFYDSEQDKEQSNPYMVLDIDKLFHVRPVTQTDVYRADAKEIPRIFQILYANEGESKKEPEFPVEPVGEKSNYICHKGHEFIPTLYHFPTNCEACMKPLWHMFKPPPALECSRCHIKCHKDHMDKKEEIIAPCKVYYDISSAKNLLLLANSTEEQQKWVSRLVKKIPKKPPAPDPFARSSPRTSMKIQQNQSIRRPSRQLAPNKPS
Description: Inhibition of rat ROCK2 expressed in Sf9 cells at 10 uM
In assay [8] the target is Casein kinase II (Homo sapiens) (UniProt P67870+P68400+P19784). The conditions noted are these: Sf9, at 10 µM.
Description: Inhibition of His-tagged human CK2 expressed in Sf9 cells at 10 uM
Assay [9] concerns the target T2, Mitogen-activated protein kinase 12 (Homo sapiens) (UniProt P53778).
T2 sequence (whole entry): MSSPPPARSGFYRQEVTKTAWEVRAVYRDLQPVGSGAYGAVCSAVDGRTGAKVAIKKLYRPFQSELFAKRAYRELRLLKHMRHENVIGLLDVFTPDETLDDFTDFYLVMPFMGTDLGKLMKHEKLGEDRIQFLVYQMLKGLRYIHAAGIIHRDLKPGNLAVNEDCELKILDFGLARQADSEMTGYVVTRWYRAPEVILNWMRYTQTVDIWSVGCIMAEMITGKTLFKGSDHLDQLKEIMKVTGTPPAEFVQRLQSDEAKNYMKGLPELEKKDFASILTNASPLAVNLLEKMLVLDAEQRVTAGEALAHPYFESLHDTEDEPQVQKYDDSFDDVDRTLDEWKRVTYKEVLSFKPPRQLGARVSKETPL
The conditions noted are these: at 10 µM.
Description: Inhibition of Gst-tagged human SAPK3/p38gamma expressed in Escherichia coli at 10 uM

Assay [10] concerns the target Mitogen-activated protein kinase 14 (Homo sapiens) (UniProt Q16539). Conditions: at 10 µM.
Description: Inhibition of Gst-tagged human SAPK2a/p38 expressed in Escherichia coli at 10 uM
In assay [11] the target is T3, Serine/threonine-protein kinase Chk1 (Homo sapiens) (UniProt O14757).
T3 sequence (whole entry): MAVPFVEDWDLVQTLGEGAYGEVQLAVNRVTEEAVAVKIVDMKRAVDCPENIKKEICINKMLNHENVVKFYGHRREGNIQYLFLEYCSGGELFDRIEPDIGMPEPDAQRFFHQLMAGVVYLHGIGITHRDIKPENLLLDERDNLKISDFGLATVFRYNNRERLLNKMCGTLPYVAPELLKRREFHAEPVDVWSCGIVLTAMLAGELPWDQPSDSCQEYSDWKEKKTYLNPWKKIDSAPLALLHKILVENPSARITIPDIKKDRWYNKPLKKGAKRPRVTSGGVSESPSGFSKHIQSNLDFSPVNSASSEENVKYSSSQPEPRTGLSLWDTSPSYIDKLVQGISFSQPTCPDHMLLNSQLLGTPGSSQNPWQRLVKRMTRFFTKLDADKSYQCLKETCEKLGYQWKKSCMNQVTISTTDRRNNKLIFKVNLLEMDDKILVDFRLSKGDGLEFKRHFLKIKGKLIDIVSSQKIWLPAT
Conditions: at 10 µM.
Description: Inhibition of His-tagged human CHK1 expressed in Escherichia coli at 10 uM

The species entered for another assay is Bos taurus. Conditions: at 10 µM.
The species named for a further assay is Rattus norvegicus. The conditions noted are these: at 10 µM.
For assay [12], the species on record is Oryctolagus cuniculus. The conditions noted are these: Muscle tissue, at 10 µM.
Description: Inhibition of MAPKAPK1b from rabbit skeletal muscle at 10 uM
The target of assay [13] is Glycogen synthase kinase-3 beta (Homo sapiens, UniProt P49841). Conditions: Sf21, at 10 µM.
Glycogen synthase kinase-3 beta, sequence (P49841 whole entry, looked up): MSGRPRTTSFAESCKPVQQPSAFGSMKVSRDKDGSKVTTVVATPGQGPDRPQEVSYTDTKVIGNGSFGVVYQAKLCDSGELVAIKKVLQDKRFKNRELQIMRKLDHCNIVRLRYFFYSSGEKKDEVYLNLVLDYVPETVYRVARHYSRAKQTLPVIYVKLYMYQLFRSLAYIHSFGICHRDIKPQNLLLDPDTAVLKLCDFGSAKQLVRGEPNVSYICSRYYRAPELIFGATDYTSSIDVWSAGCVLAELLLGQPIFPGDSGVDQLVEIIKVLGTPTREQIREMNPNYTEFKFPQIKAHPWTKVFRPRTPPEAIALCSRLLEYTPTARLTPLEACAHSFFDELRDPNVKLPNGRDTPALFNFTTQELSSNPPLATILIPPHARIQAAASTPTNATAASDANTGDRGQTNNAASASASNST
Description: Inhibition of His-tagged human GSK3b expressed in Sf21 cells at 10 uM
The species named for assay [14] is Oryctolagus cuniculus. Conditions: Muscle tissue, at 10 µM. This is another data set of the same source.
Description: Inhibition of PHK from rabbit skeletal muscle at 10 uM
A short description of assay [15]: Inhibition of PHK from rabbit skeletal muscle. It is filed as tissue-based, Oryctolagus cuniculus, Muscle tissue.
Assay [16] concerns the target RAC-alpha serine/threonine-protein kinase (Homo sapiens) (UniProt P31749). The conditions noted are these: Sf9, at 10 µM.
Description: Inhibition of human PKBalpha expressed in SF9 cells at 10 uM
Assay [17] deals with T4, Mitogen-activated protein kinase 13 (Homo sapiens) (UniProt O15264).
T4 sequence (whole entry): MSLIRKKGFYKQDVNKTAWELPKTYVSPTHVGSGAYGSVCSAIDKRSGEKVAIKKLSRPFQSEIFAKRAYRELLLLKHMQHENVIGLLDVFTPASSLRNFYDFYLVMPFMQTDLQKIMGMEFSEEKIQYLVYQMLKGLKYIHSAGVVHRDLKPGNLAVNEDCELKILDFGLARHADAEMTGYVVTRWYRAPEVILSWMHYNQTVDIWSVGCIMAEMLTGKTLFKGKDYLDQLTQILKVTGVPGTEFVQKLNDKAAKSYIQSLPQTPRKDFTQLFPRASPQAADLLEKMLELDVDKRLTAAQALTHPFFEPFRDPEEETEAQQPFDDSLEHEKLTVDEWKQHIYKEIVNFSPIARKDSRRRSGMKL
The conditions noted are these: at 10 µM.
Description: Inhibition of Gst-tagged human SAPK4/p38delta expressed in Escherichia coli at 10 uM

For assay [18], the target named is Serine/threonine-protein kinase N2 (Homo sapiens) (UniProt Q16513). In words: Inhibition of His-tagged human PRK2 expressed in HEK293 cells at 10 uM. The format is cell-based.
Assay [19] concerns the target Ribosomal protein S6 kinase beta-1 (Homo sapiens, UniProt P23443). The conditions noted are these: at 10 µM.
Description: Inhibition of His-tagged human S6K1 expressed in Escherichia coli at 10 uM
The target of assay [20] is T5, Serine/threonine-protein kinase Sgk1 (Homo sapiens) (UniProt O00141).
T5 sequence (whole entry): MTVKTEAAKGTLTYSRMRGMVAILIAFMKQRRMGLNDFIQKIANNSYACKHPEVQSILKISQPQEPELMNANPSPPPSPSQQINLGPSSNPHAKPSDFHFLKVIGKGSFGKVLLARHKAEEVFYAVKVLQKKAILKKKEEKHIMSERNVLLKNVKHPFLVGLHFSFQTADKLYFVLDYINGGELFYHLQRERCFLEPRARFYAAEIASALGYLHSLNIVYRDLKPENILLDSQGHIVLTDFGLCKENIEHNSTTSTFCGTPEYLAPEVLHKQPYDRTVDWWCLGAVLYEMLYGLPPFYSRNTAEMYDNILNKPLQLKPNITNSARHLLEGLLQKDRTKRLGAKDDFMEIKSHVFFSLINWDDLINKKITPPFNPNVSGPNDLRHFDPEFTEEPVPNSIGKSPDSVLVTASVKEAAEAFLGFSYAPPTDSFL
Conditions: Sf9, at 10 µM.
Description: Inhibition of His-tagged human SGK expressed in Sf9 cells at 10 uM

Assay [21] in a line: Inhibition of MAPKAPK1b from rabbit skeletal muscle. The format is tissue-based, Oryctolagus cuniculus, Muscle tissue.
In assay [22] the target is MAP kinase-activated protein kinase 2 (Homo sapiens, UniProt P49137). The conditions noted are these: at 10 µM.
MAP kinase-activated protein kinase 2, sequence (P49137 whole entry, looked up): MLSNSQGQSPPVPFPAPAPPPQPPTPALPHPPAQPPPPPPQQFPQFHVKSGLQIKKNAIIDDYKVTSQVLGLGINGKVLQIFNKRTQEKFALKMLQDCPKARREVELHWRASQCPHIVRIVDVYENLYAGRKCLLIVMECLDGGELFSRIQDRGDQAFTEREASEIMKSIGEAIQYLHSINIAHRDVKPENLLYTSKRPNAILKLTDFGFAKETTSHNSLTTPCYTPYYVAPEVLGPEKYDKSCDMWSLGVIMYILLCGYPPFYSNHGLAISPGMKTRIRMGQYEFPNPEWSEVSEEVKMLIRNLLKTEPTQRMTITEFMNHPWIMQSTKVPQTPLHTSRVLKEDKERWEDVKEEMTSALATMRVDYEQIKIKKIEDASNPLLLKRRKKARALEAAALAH
Description: Inhibition of Gst-tagged human MAPKAPK2 expressed in Escherichia coli at 10 uM
Assay [23] is filed under the species Oryctolagus cuniculus. Conditions: at 10 µM.
Description: Inhibition of rabbit MKK1 expressed in Escherichia coli at 10 uM
For a further assay, the species on record is Mus musculus. Put plainly: Inhibition of EGF-induced activation of MKK1 in mouse […] at 2 nM. It is filed as cell-based.
Assay [24] deals with Tyrosine-protein kinase Lck (Homo sapiens) (UniProt P06239). The conditions noted are these: Sf9, at 10 µM.
Description: Inhibition of His-tagged human LCK expressed in Sf9 cells at 10 uM

Mitogen-activated protein kinase 14 (Homo sapiens), sequence (Q16539 whole entry): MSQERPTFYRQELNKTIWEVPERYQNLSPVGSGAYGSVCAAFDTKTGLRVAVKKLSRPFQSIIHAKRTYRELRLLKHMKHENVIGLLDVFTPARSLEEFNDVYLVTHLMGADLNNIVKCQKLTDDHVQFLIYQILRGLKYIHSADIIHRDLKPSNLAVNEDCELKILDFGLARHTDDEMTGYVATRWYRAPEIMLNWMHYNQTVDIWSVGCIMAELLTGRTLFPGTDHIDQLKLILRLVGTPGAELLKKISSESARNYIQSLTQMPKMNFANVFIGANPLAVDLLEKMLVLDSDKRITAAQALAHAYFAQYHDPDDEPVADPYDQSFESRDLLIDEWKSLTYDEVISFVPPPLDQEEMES
Ribosomal protein S6 kinase alpha-5, sequence (O75582 whole entry, looked up): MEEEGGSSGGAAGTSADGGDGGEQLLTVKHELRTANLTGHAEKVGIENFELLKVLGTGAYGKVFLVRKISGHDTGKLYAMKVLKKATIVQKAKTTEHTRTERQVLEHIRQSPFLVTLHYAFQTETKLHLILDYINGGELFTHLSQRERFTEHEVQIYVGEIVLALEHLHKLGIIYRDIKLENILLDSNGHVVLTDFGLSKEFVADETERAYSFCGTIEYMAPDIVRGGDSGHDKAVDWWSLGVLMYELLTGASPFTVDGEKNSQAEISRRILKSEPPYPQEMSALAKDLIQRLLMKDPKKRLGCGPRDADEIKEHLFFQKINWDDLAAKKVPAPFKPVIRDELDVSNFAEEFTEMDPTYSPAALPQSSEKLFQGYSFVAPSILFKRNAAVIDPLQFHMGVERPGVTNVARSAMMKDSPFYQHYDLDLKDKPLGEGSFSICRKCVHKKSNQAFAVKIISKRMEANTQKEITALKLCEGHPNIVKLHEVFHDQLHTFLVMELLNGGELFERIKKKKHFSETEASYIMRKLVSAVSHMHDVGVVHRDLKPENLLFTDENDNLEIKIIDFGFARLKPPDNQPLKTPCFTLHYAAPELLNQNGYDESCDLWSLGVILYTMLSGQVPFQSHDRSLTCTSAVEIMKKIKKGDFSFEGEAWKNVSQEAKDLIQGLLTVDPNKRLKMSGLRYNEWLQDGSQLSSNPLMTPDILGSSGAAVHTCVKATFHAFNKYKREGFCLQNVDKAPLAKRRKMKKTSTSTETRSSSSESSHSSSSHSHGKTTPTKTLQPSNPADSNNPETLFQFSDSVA
RAC-alpha serine/threonine-protein kinase (Homo sapiens), sequence (P31749 whole entry): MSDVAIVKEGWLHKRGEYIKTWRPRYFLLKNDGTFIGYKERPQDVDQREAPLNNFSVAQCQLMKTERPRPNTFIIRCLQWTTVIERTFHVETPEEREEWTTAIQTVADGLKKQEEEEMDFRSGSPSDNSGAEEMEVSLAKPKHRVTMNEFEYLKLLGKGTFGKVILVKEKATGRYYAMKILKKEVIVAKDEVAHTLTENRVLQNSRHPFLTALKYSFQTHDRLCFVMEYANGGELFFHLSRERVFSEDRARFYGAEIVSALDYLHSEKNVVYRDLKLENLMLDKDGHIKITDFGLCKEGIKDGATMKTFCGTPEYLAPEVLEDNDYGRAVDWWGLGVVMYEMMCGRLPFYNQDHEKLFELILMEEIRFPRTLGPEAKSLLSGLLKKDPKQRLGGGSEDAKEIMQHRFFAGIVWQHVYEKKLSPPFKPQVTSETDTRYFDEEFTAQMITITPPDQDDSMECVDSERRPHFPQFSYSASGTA
Mitogen-activated protein kinase 11 (Homo sapiens), sequence (Q15759 whole entry): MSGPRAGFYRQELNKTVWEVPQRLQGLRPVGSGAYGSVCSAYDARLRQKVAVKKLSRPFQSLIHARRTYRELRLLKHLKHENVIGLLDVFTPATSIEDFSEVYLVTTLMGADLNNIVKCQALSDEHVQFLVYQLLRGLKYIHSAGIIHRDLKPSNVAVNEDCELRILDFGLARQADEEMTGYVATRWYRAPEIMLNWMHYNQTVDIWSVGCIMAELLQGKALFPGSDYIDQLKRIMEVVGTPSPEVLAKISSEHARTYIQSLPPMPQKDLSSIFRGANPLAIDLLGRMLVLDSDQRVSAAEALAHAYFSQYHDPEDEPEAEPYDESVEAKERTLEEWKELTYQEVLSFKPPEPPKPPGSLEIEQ
Mitogen-activated protein kinase 8 (Homo sapiens), sequence (P45983 whole entry): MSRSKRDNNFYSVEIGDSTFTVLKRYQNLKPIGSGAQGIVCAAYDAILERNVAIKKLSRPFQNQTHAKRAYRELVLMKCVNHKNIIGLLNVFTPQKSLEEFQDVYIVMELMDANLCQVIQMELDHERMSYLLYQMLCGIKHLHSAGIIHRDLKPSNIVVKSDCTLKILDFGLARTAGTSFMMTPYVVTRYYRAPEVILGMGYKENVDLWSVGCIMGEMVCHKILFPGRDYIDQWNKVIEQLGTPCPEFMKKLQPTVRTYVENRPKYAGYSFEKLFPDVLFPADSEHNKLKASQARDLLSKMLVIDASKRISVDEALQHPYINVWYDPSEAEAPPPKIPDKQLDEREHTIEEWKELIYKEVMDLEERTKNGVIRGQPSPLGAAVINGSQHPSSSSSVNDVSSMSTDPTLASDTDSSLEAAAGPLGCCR
Description for Bos taurus: Inhibition of bovine heart PKA at 10 uM

For orientation: IC50 means the concentration needed to halve the response being measured. By inhibition is commonly meant the percentage by which the read-out fell short of the control. The low end stands for little suppression, the high end for strong suppression. As to `C[C@@H](N)[C@H]1CC[C@H](C(=O)Nc2ccncc2)CC1` [Y-27632], the residual activity worked out at 104% in assay [1]; 57% in [2]; 107% in [3]; 94% in assay [4]; 98% in assay [5]; 98% in assay [6]. In addition, the residual activity in [7] is 13%; in assay [8], 98%; in assay [9], 100%; in assay [10] it was 94%; in [11] it was 99%; in the assay filed under Bos taurus, 91%. Also, the residual activity in the assay filed under Rattus norvegicus was 95%; in assay [13] it was 92%; in [16], 90%; in assay [17], 95%; in [19], 94%; in assay [20], 109%. The residual activity in [22] was determined as 99%; in the assay filed under Oryctolagus cuniculus [23] it was 103%. Also, the results for the level, % of control in the assay listed under Oryctolagus cuniculus [12] and in the assay listed under Oryctolagus cuniculus [14] were 72% and 81%, respectively. The IC50 is 44 µM in assay [15] and 19 µM in assay [21]. This molecule also showed an inhibition in [18] of 6%.
For `O=C(NOCC1CC1)c1ccc(F)c(F)c1Nc1ccc(I)cc1Cl`, the residual activity in [1] is 71%; in [2], 118%; in assay [3], 119%; in assay [4], 107%; in assay [5] it was 102%; in assay [6], 99%. The residual activity in assay [7] amounted to 107%; in assay [8], 96%; in assay [9] it was 100%; in [10] it was 100%; in assay [11], 104%; in the assay listed under Bos taurus, 105%. In addition, the residual activity in the assay filed under Rattus norvegicus worked out at 89%; in assay [13] it was 83%; in assay [24], 99%; in assay [16], 89%; in assay [17], 98%; in assay [20] it was 111%. Besides, the residual activity in assay [22] came to 98%. The molecule also registered an inhibition in the assay filed under Mus musculus of 50%. In addition, in the assay filed under Oryctolagus cuniculus [14], the level, % of control stood at 117%.
